Data taken from patent US6358947B1 (American Home Products Corporation, priority 1999, dated 2002).

What was measured:
hPR-A = target: T1, hPR-A (Homo sapiens, UniProt P06401); experiment: PR receptor binding assay
T1 sequence (P06401 1-769 isoform P06401-2): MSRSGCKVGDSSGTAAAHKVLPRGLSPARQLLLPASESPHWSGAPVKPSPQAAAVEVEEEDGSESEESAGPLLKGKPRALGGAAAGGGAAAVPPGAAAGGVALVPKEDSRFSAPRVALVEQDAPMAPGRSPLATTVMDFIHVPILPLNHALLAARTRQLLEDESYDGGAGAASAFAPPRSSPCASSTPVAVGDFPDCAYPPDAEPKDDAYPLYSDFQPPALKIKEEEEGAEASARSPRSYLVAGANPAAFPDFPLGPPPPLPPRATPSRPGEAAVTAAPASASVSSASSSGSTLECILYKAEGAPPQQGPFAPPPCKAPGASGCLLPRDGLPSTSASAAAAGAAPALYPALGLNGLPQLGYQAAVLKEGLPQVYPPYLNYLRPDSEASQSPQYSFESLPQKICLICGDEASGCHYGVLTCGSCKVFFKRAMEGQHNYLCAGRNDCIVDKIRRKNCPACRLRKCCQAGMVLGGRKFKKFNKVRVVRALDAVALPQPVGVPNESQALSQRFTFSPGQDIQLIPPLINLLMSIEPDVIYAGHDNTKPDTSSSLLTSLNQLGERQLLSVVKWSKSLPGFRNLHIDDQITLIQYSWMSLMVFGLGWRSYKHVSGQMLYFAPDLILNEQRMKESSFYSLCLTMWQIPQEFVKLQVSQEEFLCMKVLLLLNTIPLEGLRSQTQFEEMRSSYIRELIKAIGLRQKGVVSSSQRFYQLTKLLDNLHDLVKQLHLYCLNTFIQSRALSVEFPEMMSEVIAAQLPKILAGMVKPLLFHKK

hAR = target: T2, hAR (Homo sapiens, UniProt P10275); experiment: Cotransfection assay, AR antagonist; type: cell-based; settings: read-out: AR Potency Antag
T2 sequence (P10275 1-920): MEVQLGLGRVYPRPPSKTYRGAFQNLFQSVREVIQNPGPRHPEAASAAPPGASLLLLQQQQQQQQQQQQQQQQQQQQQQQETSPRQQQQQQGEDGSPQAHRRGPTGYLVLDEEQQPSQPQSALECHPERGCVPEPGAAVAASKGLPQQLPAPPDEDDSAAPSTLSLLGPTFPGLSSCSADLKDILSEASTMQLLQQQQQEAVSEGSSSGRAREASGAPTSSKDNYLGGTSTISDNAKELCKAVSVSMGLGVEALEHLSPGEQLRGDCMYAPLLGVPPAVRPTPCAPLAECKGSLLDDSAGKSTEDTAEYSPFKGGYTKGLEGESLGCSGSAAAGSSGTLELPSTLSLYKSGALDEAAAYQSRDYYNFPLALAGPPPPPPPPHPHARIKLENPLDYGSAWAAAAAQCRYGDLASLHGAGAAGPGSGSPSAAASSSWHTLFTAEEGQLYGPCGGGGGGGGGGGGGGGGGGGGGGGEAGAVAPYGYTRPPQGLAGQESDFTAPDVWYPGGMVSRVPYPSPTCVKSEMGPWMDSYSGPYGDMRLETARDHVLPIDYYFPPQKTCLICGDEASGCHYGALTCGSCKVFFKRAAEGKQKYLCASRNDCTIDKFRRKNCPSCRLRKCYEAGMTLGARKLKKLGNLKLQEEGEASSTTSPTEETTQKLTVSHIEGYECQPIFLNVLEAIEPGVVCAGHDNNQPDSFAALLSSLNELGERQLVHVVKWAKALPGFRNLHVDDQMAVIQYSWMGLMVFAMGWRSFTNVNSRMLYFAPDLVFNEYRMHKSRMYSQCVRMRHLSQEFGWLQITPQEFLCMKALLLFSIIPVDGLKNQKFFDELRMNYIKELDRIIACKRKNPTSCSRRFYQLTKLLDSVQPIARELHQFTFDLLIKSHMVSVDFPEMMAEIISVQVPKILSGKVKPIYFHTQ

hMR = target: T3, hMR (Homo sapiens, UniProt P08235); experiment: Cotransfection assay, MR antagonist; type: cell-based; settings: read-out: MR Potency Antag
T3 sequence (P08235 1-984): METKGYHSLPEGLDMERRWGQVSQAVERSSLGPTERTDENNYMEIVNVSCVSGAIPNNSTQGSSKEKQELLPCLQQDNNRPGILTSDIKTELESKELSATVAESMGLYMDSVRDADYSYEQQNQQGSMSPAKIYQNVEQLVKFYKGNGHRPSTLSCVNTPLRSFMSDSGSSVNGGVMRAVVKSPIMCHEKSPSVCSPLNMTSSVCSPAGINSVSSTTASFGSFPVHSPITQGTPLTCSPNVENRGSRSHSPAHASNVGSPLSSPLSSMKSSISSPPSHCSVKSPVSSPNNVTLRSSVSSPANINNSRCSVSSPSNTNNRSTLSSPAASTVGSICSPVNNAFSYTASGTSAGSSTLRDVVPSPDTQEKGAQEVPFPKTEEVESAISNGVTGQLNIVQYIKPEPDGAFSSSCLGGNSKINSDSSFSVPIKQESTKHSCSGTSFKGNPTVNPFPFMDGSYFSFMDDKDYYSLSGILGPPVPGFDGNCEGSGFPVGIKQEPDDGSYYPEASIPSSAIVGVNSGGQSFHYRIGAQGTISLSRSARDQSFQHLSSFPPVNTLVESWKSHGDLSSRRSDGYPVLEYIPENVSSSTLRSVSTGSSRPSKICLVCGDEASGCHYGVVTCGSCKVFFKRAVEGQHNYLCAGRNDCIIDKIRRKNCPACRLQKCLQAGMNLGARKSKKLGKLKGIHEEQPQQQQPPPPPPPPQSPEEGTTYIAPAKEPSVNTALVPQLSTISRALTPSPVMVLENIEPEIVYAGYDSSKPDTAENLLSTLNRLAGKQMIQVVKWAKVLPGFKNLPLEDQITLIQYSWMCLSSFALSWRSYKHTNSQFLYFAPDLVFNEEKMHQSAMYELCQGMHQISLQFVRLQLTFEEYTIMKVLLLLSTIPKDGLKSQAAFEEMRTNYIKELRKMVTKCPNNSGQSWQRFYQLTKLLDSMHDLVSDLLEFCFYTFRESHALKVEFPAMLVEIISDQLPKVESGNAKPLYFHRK

Ki (hPR-A)	IC50 (hAR)	IC50 (hMR)	SMILES
172 nM	200 nM	> 10000 nM	CC1(C)OC(=O)Nc2ccc3c(c21)COc1c(F)cccc1-3 [Compound 14, 7-Fluoro-4,4-dimethyl-5H-chromeno[3,4-f]-1,3-benzo[d]oxazin-2-one]
17 nM	1000 nM	> 10000 nM	CC1(C)OC(=O)Nc2ccc3c(c21)COc1c(F)cc(Br)cc1-3 [Compound 20, 9-Bromo-7-fluoro-4,4-dimethyl-5H-chromeno[3,4-f]-1,3-benzo[d]oxazin-2-one]
181 nM	130 nM	> 10000 nM	CC1(C)OC(=O)Nc2ccc3c(c21)COc1c(F)cc(C=O)cc1-3 [Compound 24, 7-fluoro-9-formyl-4,4-dimethyl-5H-chromeno[3,4-f]-1,3-benzo[d]oxazin-2-one]
65 nM	100 nM	> 10000 nM	CC1(C)OC(=O)Nc2ccc3c(c21)COc1c(F)cc(C=NO)cc1-3 [Compound 25, 7-fluoro-9-hydroxyiminomethyl-4,4-dimethyl-5H-chromeno[3,4-f]-1,3-benzo[d]oxazin-2-one]
20 nM	300 nM	> 10000 nM	CC1(C)OC(=O)Nc2ccc3c(c21)COc1c(F)cc(C#N)cc1-3 [Compound 26, 9-cyano-7-fluoro-4,4-dimethyl-5H-chromeno[3,4-f]-1,3-benzo[d]oxazin-2-one]
